According to ChEMBL document CHEMBL3046236, “The application of comparative molecular field analysis for the design of -anilino substituted-3-phenyl propanoic acids as novel PPAR/ dual ligands” (Med Chem Res, 2012):

Experiments:
[1] = molecular target: T1, Peroxisome proliferator-activated receptor alpha (Homo sapiens, UniProt Q07869); assay: Transactivation of Homo sapiens (human) PPARalpha assessed as luciferase activity by reporter gene assay
T1 sequence (Q07869 whole entry): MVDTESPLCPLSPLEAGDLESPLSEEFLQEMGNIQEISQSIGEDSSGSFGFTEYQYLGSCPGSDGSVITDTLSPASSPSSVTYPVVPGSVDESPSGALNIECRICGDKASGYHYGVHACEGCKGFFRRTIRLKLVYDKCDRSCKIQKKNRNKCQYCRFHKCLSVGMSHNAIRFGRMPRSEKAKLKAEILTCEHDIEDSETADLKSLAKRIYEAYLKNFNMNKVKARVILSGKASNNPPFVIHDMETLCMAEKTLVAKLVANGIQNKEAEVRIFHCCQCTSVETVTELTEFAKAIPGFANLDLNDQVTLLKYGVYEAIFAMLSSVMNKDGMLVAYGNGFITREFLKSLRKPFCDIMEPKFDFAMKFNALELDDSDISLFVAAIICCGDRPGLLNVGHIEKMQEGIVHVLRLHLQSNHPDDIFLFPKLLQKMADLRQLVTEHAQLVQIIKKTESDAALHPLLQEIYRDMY

[2] = molecular target: T2, Peroxisome proliferator-activated receptor gamma (Homo sapiens, UniProt P37231)
T2 sequence (P37231 whole entry): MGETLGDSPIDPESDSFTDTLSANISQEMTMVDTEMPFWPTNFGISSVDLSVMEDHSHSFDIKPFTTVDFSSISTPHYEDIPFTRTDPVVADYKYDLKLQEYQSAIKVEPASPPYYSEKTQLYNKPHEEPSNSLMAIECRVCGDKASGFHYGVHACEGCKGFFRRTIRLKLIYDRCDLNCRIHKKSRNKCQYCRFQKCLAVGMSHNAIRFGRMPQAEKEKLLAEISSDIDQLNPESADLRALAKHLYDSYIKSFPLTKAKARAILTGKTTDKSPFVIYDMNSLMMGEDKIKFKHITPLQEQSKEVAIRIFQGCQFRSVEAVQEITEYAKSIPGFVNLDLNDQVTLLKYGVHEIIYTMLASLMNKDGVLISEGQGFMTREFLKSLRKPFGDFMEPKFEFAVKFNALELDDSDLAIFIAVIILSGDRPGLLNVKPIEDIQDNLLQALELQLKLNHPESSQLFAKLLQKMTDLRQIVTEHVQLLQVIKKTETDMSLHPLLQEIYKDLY
Description: Transactivation of Homo sapiens (human) PPARgamma assessed as luciferase activity by reporter gene assay

| EC50 [1] [nM] | EC50 [2] [nM] | Compound |
| --- | --- | --- |
| 3.98 | 31.6 | CC(C)O[C@@H](Cc1ccc(OCc2noc(-c3cc(C(F)(F)F)cc(C(F)(F)F)c3)n2)cc1)C(=O)O |
| > 10000 |  | Cc1sc(-c2ccncc2)nc1CCOc1ccc(C[C@H](Nc2ccccc2C(=O)c2ccccc2)C(=O)O)cc1 |
| 1 | 1 | Cc1oc(C2CCCCC2)nc1CCOc1ccc(C[C@H](Oc2ccccc2)C(=O)O)cc1 |
| 2510 | 631 | CC(C)O[C@H](Cc1ccc(OCc2noc(-c3cc(C(F)(F)F)cc(C(F)(F)F)c3)n2)cc1)C(=O)O |
| 2190 | 4270 | CCO[C@@H](Cc1ccc(OC/C=C(\c2ccccc2)c2ccc(Br)cc2)cc1)C(=O)O |
| 692 |  | CCO[C@@H](Cc1ccc(OCC=C(c2ccc(C)cc2)c2ccc(C)cc2)cc1)C(=O)O |
| 5250 | 8510 | CCO[C@@H](Cc1ccc(OC/C=C(/c2ccccc2)c2ccc(F)cc2)cc1)C(=O)O |

| Compound | EC50 [1] [nM] | EC50 [2] [nM] |
| --- | --- | --- |
| CCO[C@@H](Cc1ccc(OC/C=C(/c2ccccc2)c2ccc(-c3ccccc3)cc2)cc1)C(=O)O | 891 |  |
